Assay results taken from article PMC10272112 (Nature Communications, 2023).
Where “and” joins values, the source holds several entries; their conditions need not be identical. Equal values may be shown once.

How the values were obtained:
HDAC4 = target: T1, HDAC4 (Homo sapiens, UniProt P56524); assay: Chemoproteomic competition pulldown assay with iC; format: binding; details: for relative binding vs DMSO: iC
T1 construct: endogenous in cells; host or cells: cell lysate
Procedure: (§1) To identify proteins directly bound by lipoic acid, we employed a chemoproteomic competition assay. Briefly, (R/S)-LA was immobilized on sepharose beads via an amidation reaction to form an affinity matrix (abbreviated as iL; Fig. 1a). This affinity matrix can be incubated with cell lysate to pull down potential LA or LM target proteins and identify these targets via bottom-up proteomics. In a competition assay, free LA or LM were incubated with lysate at different concentrations before pulling down and quantifying target proteins. […] (Fig. 1b, see “Methods” for details). […] The lysate buffer used in this assay contains 1 mM DTT to mimic the intracellular reductive milieu and to reduce lipoic acid and LM. […] Additional competition assays performed in lung adenocarcinoma cell A549 lysate also identified HDAC1, HDAC2, and HDAC6 as targets (Supplementary Fig. 1b). Amongst the three cell lines tested, HDACs were the only confidently identified targets across the 1500–3000 proteins quantified in these assays. […] We validated the results by analogous pulldown competition assays using two other affinity matrices prepared via the immobilization of either the HDAC inhibitor Quisinostat (iQ) and an analog of the class IIa HDAC inhibitor Bürli’s 31[14] (iC)[12]. We have previously shown that these affinity matrices specifically bind to the active sites of HDACs and have used them for HDACi selectivity profiling. Indeed, binding of (R/S)-LA and (R/S)-LM to HDAC1, HDAC2, HDAC3, HDAC6, and, to a lesser extent, HDAC8 was confirmed in these assays (Supplementary Fig. 1c, d). No binding to class IIa HDACs or the recently discovered common HDAC inhibitor off-target MBLAC2 was observed (Supplementary Fig. 1e)[12]. […] This observation might reflect electrostatic repulsion between the HDAC10 active site gate-keeper glutamic acid residues[15],[16] and the terminal carboxylic acid of LA.
(§2) To assess the degree of protein depletion from lysates by the affinity matrix, a second pulldown (PDPD) with fresh beads was performed using the unbound protein fraction from the vehicle control flow through. The beads were washed (1 × 1 mL of lysis buffer without inhibitors and only 0.4% Igepal, 2 × 2 mL of lysis buffer without inhibitors and only 0.2% Igepal), and captured proteins were denatured with 8 M urea buffer, alkylated with 55 mM chloroacetamide and digested with Trypsin according to standard procedures. The resulting peptides were desalted on a C18 filter plate (Sep-Pak® tC18 µElution Plate, Waters), vacuum dried, and stored at −20 °C until LC–MSMS measurement.
(§3) For the competition assays, relative binding was calculated based on the protein intensity ratio to the DMSO control for every single inhibitor concentration. EC50 values were derived from a four-parameter log-logistic regression with variable slope (constrain: bottom > 0). The obtained EC50 values were multiplied with a protein-dependent correction factor (cf), resulting in the apparent Kd value (Kd^app). The correction factor is determined by calculating the ratio of the protein intensity of two consecutive pulldowns of the vehicle control sample[13]. Targets of the inhibitors were annotated manually according to published procedures[12],[46],[47]. […] Additionally, the number of unique peptides and MSMS counts per condition were taken into account. Positive target binding across several independent experiments performed with different cell lysates further substantiated our confidence for a true positive drug-target binding event.

MBLAC2 = target: T2, MBLAC2 (Homo sapiens, UniProt Q68D91); assay: Chemoproteomic competition pulldown assay with iC; format: binding; details: for relative binding vs DMSO: iC
T2 construct: endogenous in cells; host or cells: cell lysate
T2 sequence (Q68D91 1-279): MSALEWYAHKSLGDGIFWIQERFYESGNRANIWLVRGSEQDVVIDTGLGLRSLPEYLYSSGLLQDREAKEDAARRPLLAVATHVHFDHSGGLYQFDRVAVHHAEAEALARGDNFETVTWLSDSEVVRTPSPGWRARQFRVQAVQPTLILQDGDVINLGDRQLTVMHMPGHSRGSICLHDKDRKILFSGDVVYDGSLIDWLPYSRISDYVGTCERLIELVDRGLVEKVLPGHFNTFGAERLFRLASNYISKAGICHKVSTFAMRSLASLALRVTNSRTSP
Procedure: as §1, §2, §3

A549 cells = assay: CellRox deep red assay for tBuOOH-induced ROS; details: for tBuOOH-induced ROS (CellRox), relative to DMSO, Mean / tBuOOH-induced ROS (CellRox), relative to DMSO, replicate values: sheet 4c, DMSO mean = 1
Procedure: A549 cells were maintained in DMEM (Sigma) supplemented with 10% fetal bovine serum (Pan Biotech). […] The CellRox assay was performed according to the product guidelines (ThermoFisher). Briefly, cells were treated with lipoic acid, N-acetyl-cysteine (NAC), or vector control (DMSO) for 1 h, followed by a 2 h treatment with 200 µM tert-butyl hydroperoxide, and then stained with 5 µM CellRox Deep Red for 1 h. Cells were washed twice with FluoroBrite DMEM (ThermoFisher) supplemented with 10% FBS before imaging. CellRox Deep Red signal intensity was measured on a Leica DMI 6000 B epifluorescent microscope with a Cy5 filter set. […] Significance was calculated by ANOVA with a post hoc Dunnett’s multiple comparisons test against the DMSO control (GraphPad).

DNTTIP1 = assay: Chemoproteomic competition pulldown assay (co-competed MiDAC partner); format: binding
Procedure: as §1, §2, §3

ELMSAN1 = assay: as above; format: binding
Procedure: as §1, §2, §3

[1] = iL, MV4-11 lysate, log10 M -3.52288
[2] = iL, MV4-11 lysate, log10 M -4.52288
[3] = iL, MV4-11 lysate, log10 M -5.52288
[4] = iL, MV4-11 lysate, log10 M -6.52288
[5] = iQ, SW620 lysate, log10 M -3.52288
[6] = iQ, SW620 lysate, log10 M -4.52288
[7] = iQ, SW620 lysate, log10 M -5.52288
[8] = iQ, SW620 lysate, log10 M -6.52288

T1 sequence (P56524 whole entry): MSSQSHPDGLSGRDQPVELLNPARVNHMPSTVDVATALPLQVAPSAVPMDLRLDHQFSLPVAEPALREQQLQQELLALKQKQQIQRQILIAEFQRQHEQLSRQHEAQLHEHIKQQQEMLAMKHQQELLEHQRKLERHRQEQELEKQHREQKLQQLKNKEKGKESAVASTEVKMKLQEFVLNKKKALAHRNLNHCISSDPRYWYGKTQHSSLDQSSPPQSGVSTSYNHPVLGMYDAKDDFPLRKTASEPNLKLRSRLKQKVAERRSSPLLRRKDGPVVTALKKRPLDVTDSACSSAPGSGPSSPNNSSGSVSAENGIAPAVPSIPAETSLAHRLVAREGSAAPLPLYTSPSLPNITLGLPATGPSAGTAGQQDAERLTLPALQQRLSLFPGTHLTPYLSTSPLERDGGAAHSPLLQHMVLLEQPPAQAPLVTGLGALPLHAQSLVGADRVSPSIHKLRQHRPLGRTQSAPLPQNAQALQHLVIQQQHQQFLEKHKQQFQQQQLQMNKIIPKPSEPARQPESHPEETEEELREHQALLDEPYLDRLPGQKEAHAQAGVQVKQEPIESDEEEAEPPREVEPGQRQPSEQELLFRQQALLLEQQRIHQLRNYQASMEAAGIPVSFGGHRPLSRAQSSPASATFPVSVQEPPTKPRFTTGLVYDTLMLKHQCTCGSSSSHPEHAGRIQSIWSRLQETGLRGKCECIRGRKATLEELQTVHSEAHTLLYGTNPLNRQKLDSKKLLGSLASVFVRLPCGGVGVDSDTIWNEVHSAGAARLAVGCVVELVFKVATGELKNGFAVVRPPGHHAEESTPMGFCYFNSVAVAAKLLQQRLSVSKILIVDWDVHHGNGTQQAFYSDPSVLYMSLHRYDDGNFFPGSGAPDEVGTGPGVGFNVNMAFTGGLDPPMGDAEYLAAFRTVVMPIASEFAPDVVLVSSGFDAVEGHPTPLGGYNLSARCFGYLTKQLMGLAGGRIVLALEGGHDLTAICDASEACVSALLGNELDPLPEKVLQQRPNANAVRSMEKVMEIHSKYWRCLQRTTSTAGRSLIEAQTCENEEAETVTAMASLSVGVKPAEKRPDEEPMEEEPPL

Compound: O=C(O)CCCCC1CCSS1 (racemic) [(R/S)-LA, (R/S)-lipoic acid]
- binding to class IIa HDACs (HDAC4; affinity matrix iC): No binding
- relative binding vs DMSO (HDAC4; log10 M -3.52288): 1.609
- relative binding vs DMSO (HDAC4; log10 M -4): 1.464
- relative binding vs DMSO (HDAC4; log10 M -4.52288): 1.531
- relative binding vs DMSO (HDAC4; log10 M -5): 1.518
- relative binding vs DMSO (HDAC4; log10 M -5.52288): 1.32
- relative binding vs DMSO (HDAC4; log10 M -6): 1.575
- relative binding vs DMSO (HDAC4; log10 M -6.52288): 1.649
- relative binding vs DMSO (HDAC4; log10 M -7): 1.276
- binding to MBLAC2 (MBLAC2; affinity matrix iC): No binding
- relative binding vs DMSO (MBLAC2; log10 M -3.52288): 0.9784
- relative binding vs DMSO (MBLAC2; log10 M -4): 1.054
- relative binding vs DMSO (MBLAC2; log10 M -4.52288): 1.366
- relative binding vs DMSO (MBLAC2; log10 M -5): 1.348
- relative binding vs DMSO (MBLAC2; log10 M -5.52288): 1.098
- relative binding vs DMSO (MBLAC2; log10 M -6): 1.484
- relative binding vs DMSO (MBLAC2; log10 M -6.52288): 0.5203
- relative binding vs DMSO (MBLAC2; log10 M -7): 0.9131
- levels of ROS (oxidative stress) relative to control (A549 cells; 100 µM drug pre-treatment, 2 h 200 µM tBuOOH): 60–70%
- tBuOOH-induced ROS (CellRox), relative to DMSO, Mean (A549 cells; (R/S)-LA 10 ?M): 0.7284
- tBuOOH-induced ROS (CellRox), relative to DMSO, replicate values (A549 cells; (R/S)-LA 10 ?M): 0.6361 and 0.7994 and 0.7496
- tBuOOH-induced ROS (CellRox), relative to DMSO, Mean (A549 cells; (R/S)-LA 30 ?M): 0.7039
- tBuOOH-induced ROS (CellRox), relative to DMSO, replicate values (A549 cells; (R/S)-LA 30 ?M): 0.5919 and 0.6862 and 0.8337
- tBuOOH-induced ROS (CellRox), relative to DMSO, Mean (A549 cells; (R/S)-LA 100 ?M): 0.6085
- tBuOOH-induced ROS (CellRox), relative to DMSO, replicate values (A549 cells; (R/S)-LA 100 ?M): 0.608 and 0.6603 and 0.5572
- tBuOOH-induced ROS (CellRox), relative to DMSO, Mean (A549 cells; (R/S)-LA 300 ?M): 0.7233
- tBuOOH-induced ROS (CellRox), relative to DMSO, replicate values (A549 cells; (R/S)-LA 300 ?M): 0.909 and 0.609 and 0.652

Compound: NC(=O)CCCCC1CCSS1 (racemic) [(R/S)-LM, (R/S)-lipoamide]
- relative binding vs DMSO (DNTTIP1; [1]): 0.05556
- relative binding vs DMSO (DNTTIP1; iL, MV4-11 lysate, log10 M -4): 0.04853
- relative binding vs DMSO (DNTTIP1; [2]): 0.1384
- relative binding vs DMSO (DNTTIP1; iL, MV4-11 lysate, log10 M -5): 0.4584
- relative binding vs DMSO (DNTTIP1; [3]): 0.6943
- relative binding vs DMSO (DNTTIP1; iL, MV4-11 lysate, log10 M -6): 0.6679
- relative binding vs DMSO (DNTTIP1; [4]): 0.7085
- relative binding vs DMSO (DNTTIP1; iL, MV4-11 lysate, log10 M -7): 0.9632
- relative binding vs DMSO (DNTTIP1; [5]): 0.382
- relative binding vs DMSO (DNTTIP1; iQ, SW620 lysate, log10 M -4): 0.3895
- relative binding vs DMSO (DNTTIP1; [6]): 0.5292
- relative binding vs DMSO (DNTTIP1; iQ, SW620 lysate, log10 M -5): 0.6889
- relative binding vs DMSO (DNTTIP1; [7]): 0.738
- relative binding vs DMSO (DNTTIP1; iQ, SW620 lysate, log10 M -6): 0.858
- relative binding vs DMSO (DNTTIP1; [8]): 0.8975
- relative binding vs DMSO (DNTTIP1; iQ, SW620 lysate, log10 M -7): 0.8297
- relative binding vs DMSO (ELMSAN1; [1]): 0.05487
- relative binding vs DMSO (ELMSAN1; iL, MV4-11 lysate, log10 M -4): 0.06564
- relative binding vs DMSO (ELMSAN1; [2]): 0.1508
- relative binding vs DMSO (ELMSAN1; iL, MV4-11 lysate, log10 M -5): 0.5058
- relative binding vs DMSO (ELMSAN1; [3]): 0.6836
- relative binding vs DMSO (ELMSAN1; iL, MV4-11 lysate, log10 M -6): 0.7193
- relative binding vs DMSO (ELMSAN1; [4]): 0.7931
- relative binding vs DMSO (ELMSAN1; iL, MV4-11 lysate, log10 M -7): 0.9008
- relative binding vs DMSO (ELMSAN1; [5]): 0
- relative binding vs DMSO (ELMSAN1; iQ, SW620 lysate, log10 M -4): 0
- relative binding vs DMSO (ELMSAN1; [6]): 0.1474
- relative binding vs DMSO (ELMSAN1; iQ, SW620 lysate, log10 M -5): 0.6579
- relative binding vs DMSO (ELMSAN1; [7]): 0.8569
- relative binding vs DMSO (ELMSAN1; iQ, SW620 lysate, log10 M -6): 0.8861
- relative binding vs DMSO (ELMSAN1; [8]): 0.626
- relative binding vs DMSO (ELMSAN1; iQ, SW620 lysate, log10 M -7): 0.8038
